Measured values published in US9079874B2, “α-Lipoic acid nanoparticles and methods for preparing thereof” (Ezaki Glico Co., Ltd., priority 2007, dated 2015).

Experiments:
[1] = cited from earlier work
[2] = Improvement in sulfurous odor, Test Example 2 (left indoors under sunlight); assay type: physicochemical; conditions: 0.1% α-lipoic acid in water, after two weeks
Source text: The paste after freeze-drying of the α-lipoic acid-MgCO3 nanoparticles produced in Example 1A, and the paste after freeze-drying of the α-lipoic acid nanoparticles produced in Comparative Example 1A without adding magnesium chloride and sodium carbonate, were respectively dispersed in distilled water such that the final concentration of α-lipoic acid reached 0.1%. The dispersions were placed in transparent test tubes made of resin, and the test tubes were left to stand indoors under sunlight. As a control, an aqueous dispersion liquid having α-lipoic acid dissolved in water (final concentration of α-lipoic acid 0.1%), which was prepared by adding an alkali (5M NaOH) to reagent α-lipoic acid, and thereby adjusting the pH to 7 to 7.5, was also left to stand in the same manner.

[3] = Thermostability test of preparation, Test Example 1 (60° C., HPLC); assay type: physicochemical; conditions: for Residual ratio(%) of α-lipoic acid: 60° C.
Experimental: The α-lipoic acid-MgCO3 nanoparticles produced in Example 1A, and the α-lipoic acid nanoparticles produced in Comparative Example 1A without adding magnesium chloride and sodium carbonate were respectively heated at 60° C., and the amounts of α-lipoic acid in the sample after one hour of heating and after 3 hours of heating were analyzed by HPLC. As a control, a reagent α-lipoic acid was used. The amount of α-lipoic acid after heating was divided by the amount of α-lipoic acid before heating, and the result was multiplied by 100 such that the residual ratio of α-lipoic acid was calculated. Symbol Δ represents the results of control reagent of α-lipoicacid, symbol ▪ represents the results of the α-lipoic acid dispersion liquid of Comparative Example 1, and symbol □ represents the results of the α-lipoic acid-MgCO3 nanoparticles of Example 1A.

3T3-L1 cells [4] = assay: Dedifferentiation of mature adipocytes, lipid accumulation by Oil Red O, Test Example 8; assay type: cell-based; conditions: added to adipocyte maturation medium, 100, 250 or 500 μM α-lipoic acid, 4 days; nanoparticles of Example 20A
Experimental: 1.5 ml of D-MEM medium (D-MEM medium supplemented with 10% FCS, 100 units/ml of penicillin, and 100 μg/ml of streptomycin, all at final concentrations) was added to a plastic petri dish having a diameter of 3.5 cm. To this, 5.0×10^4 cells of 3T3-L1 cells, which are preadipocytes, were suspended, and precultured for 3 days to result in a confluent state. Thereafter, the medium was replaced with 3 ml of an adipocyte differentiation induction medium (D-MEM medium supplemented with 10% FCS, 100 units/ml of penicillin, 100 μg/ml of streptomycin, 5 μg/ml of insulin, 0.25 μM of dexamethasone, and 0.5 mM of isobutyl-methylxanthine, all at final concentrations), and the culturing was carried out for 4 days to induce the differentiation into adipocytes. Thereafter, the medium was replaced with an adipocyte maturation medium (D-MEM medium supplemented with 10% FCS, 100 units/ml of penicillin, 100 μg/ml of streptomycin, and 5 μg/ml of insulin, all at final concentrations), and the culturing was carried out for 7 days. Thereafter, the medium was replaced with a test medium, and culturing was carried out for another 4 days. […]
The amount of accumulated lipids in the cultured cells thus obtained was measured. […] The total amount of this solution was recovered, and the absorbance at a wavelength of 520 nm was measured with a spectrophotometer.

3T3-L1 cells [5] = assay: Differentiation of preadipocytes, lipid accumulation by Oil Red O, Test Example 7; assay type: cell-based; conditions: added to adipocyte differentiation induction medium, 100, 250 or 500 μM α-lipoic acid, 4 days; nanoparticles of Example 20A
Experimental: 1.5 ml of D-MEM medium (D-MEM medium supplemented with 10% FCS, 100 units/ml of penicillin, and 100 μg/ml of streptomycin, all at final concentrations) was added to a plastic petri dish having a diameter of 3.5 cm. To this, 5.0×10^4 cells of 3T3-L1 cells, which are preadipocytes, were suspended, and precultured for 3 days to result in a confluent state. Thereafter, the medium was replaced with 3 ml of an adipocyte differentiation induction medium (D-MEM supplemented with 10% FCS, 100 units/ml of penicillin, 100 μg/ml of streptomycin, 5 μg/ml of insulin, 0.25 μM of dexamethasone, and 0.5 mM of isobutyl-methylxanthine (IBMX), all at final concentrations). After another 2 days, the medium was replaced with 3 ml of the adipocyte differentiation induction medium of the same composition, and then the culturing was carried out for 2 days. Thus, the culturing in the adipocyte differentiation induction medium was carried out for 4 days in total. During this culturing, an α-lipoic acid solution or the α-lipoic acid-MgCO3 nanoparticle solution of Example 20A was added to the adipocyte differentiation induction medium to result in 0, 100, 250 or 500 μM of α-lipoic acid concentration. […]
The amount of accumulated lipids in the cultured cells thus obtained was measured. […] The whole amount of this solution was recovered, and the absorbance at a wavelength of 520 nm was measured with a spectrophotometer.

Residual ratio(%) of α-lipoic acid ([3]; heating time 0 hrs) [%]	Residual ratio(%) of α-lipoic acid ([3]; heating time 1 hr) [%]	Residual ratio(%) of α-lipoic acid ([3]; heating time 3 hrs) [%]	reduction of the amount of α-lipoic acid ([3]; after 3 hours of heating at 60° C.)	SMILES	pKa value [1]	sulfurous odor [2]	amount of lipid accumulation in mature adipocytes (Oil Red O, 520 nm) (3T3-L1 cells [4])	accumulation of lipids in cells (Oil Red O, 520 nm) (3T3-L1 cells [5])
–	–	–	–	CC1=C(/C=C/C(C)=C/C=C/C(C)=C/C(=O)O)C(C)(C)CCC1 [retinoic acid]	6.4	–	–	–
100	50.51	44.20	about 55%	O=C(O)CCCCC1CCSS1 (stereo not drawn) [α-lipoic acid]	4.76	characteristic sulfurous odor strongly emanated	almost indifferent from that of the non-added group	reduction of the accumulation of lipids
